Experimental data reported in patent US20250134953A1, “COMPOSITIONS FOR TREATING AUTOIMMUNE ARTHRITIS” (DEVINTEC SAGL, priority 2021, published 2025).

Legend:
[1] = test system: collagen antibody-induced arthritis (CAIA) mice; test: Radiological score (X-ray) of ankle joints in CAIA mice; assay type: in vivo, Male BALB/c mice; conditions: oral gavage, score 0-3
Method: (§1) Each compound (140 mg of pea protein; 100 mg of Acacia gum; and 100 mg of alpha-Glucooligosaccharide) were administered in a PBS solution via oral gavage daily, from day 0 to day 14 in mice of Group A, and from day 4 to day 14 in mice of Group B. Prednisolone was administered via oral gavage at the doses of 0.05, 0.2 and 1 mg/kg as disclosed in Oosten, L., Helsen, M., Saxne, T. et al. “Synergistic protection against cartilage destruction by low dose prednisolone and interleukin-10 in established murine collagen arthritis”. Inflamm. Res. 48, 48-55, 1999.
(§2) The animals were divided into the following two groups: • Group A: the animals were administered with the therapeutic compounds from day 0 to day 14. • Group B: the animals were administered with the therapeutic compounds from day 4 to day 14.
(§3) Sham+vehicle (negative control) (n=3) • 2. Sham+prednisolone 0.05 mg/kg (n=3) • 3. […] Sham+prednisolone 0.2 mg/kg (n=3) • 5. […] Sham+prednisolone 1 mg/kg (n=3) • 7. […] Sham+MD (n=3) • 9. CAIA+vehicle (positive control) (n=6) • 10. CAIA+prednisolone 0.05 mg/kg (n=6) • 11. […] CAIA+prednisolone 0.2 mg/kg (n=6) • 13. […] CAIA+prednisolone 1 mg/kg (n=6) • 15. […] CAIA+140 mg Pea Protein (n=6) • 18. […] CAIA+200 mg Pea Protein (n=6) • 20. […] CAIA+70 mg Pea Protein (n=6)
Radiological analysis was carried out using X-ray technique, and radio-logical scoring (level: 0=Normal; 1=Slight; 2=Moderate and 3=Severe) was calculated considering different parameters such as periosteal reaction/hypertrophy, bone erosion, soft tissue swelling, narrowed joint space and osteoporosis in the ankle-joints, as described in Balkrishna A, et al., “Herbo-mineral formulation ‘Ashwashila’ attenuates rheumatoid arthritis symptoms in collagen-antibody-induced arthritis (CAIA) mice model” Sci Rep., 2019; vol. 9(1); pp. 8025.

[2] = test system: collagen antibody-induced arthritis (CAIA) mice; test: Histological score of ankle joints (hind legs) in CAIA mice; assay type: in vivo, Male BALB/c mice; conditions: oral gavage
Method: as §1, §2, §3
Histological analysis was carried out as previously described (Balkrishna A, et al., supra; Mengdi et al., “A novel dexamethasone-loaded liposome alleviates rheumatoid arthritis in rats”; International Journal of Pharmaceutics; 2018; vol. 540(1-2); pp. 57-64) and indicating score analysis of the RA disease-associated lesions such as the moderately enlarged synovial membrane, hyperplastic synovium, the presence of inflammation and bone and cartilage erosion on a 0-4 scale as follows: 0=normal; 1=mild, slight swelling; 2=moderate swelling; 3=severe swelling; 4=maximally inflamed; […].
Histopathological analysis of the CAIA mice hind legs was performed following fourteen days of treatment. Ankle-joints analysis of the CAIA mice was performed indicating the development of arthritis disease-associated lesions such as the moderately enlarged synovial membrane, hyperplastic synovium, increased synovial vascularity, the presence of inflammation and, bone and cartilage erosion.

[3] = test system: IL-17, IL-6, IL-23, TNF-α and IL-1β; conditions: CAIA mice; prednisolone at high doses (group 14); combination groups 13 and 15; FIGS. 1-2
Method: The mAb cocktail contained three mAb (F10, A2, D8) of type IgG2a and one mAb (D1) of type IgG2b in equal amounts, directed to bovine CII (Arthrogen-CIA, Chondrex) suspended in sterile PBS. All WT mice received intraperitnoeal i.p. injections of 8 mg/mouse of Arthrogen on day 0 and 50 ug/mouse of LPS from E. coli strain 0111B4 (Sigma, T 3382) on day 3 to synchronize the development of arthritis. All mice started to develop arthritis at day 4 and were sacrificed at day 14.
Animals from group A and B were separated in some the following subgroups, depending on the assay, and administered with the indicated compounds or combination of compounds: • 1. Sham+vehicle (negative control) (n=3) • 2. Sham+prednisolone 0.05 mg/kg (n=3) • 3. Sham+prednisolone 0.05 mg/kg +MD (50 mg acacia gum (AG) +70 mg pea protein (PP)+50 mg alpha-GOS) (n=3) • 4. Sham+prednisolone 0.2 mg/kg (n=3) • 5. Sham+prednisolone 0.2 mg/kg+MD (50 mg AG+70 mg PP+50 mg alpha-GOS) (n=3) • 6. Sham+prednisolone 1 mg/kg (n=3) • 7. Sham+prednisolone 1 mg/kg+MD (50 mg AG+70 mg PP+50 mg alpha-GOS) (n=3) • 8. Sham+MD (n=3) • 9. CAIA+vehicle (positive control) (n=6) • 10. CAIA+prednisolone 0.05 mg/kg (n=6) • 11. CAIA+prednisolone 0.05 mg/kg+MD (50 mg AG+70 mg PP+50 mg alpha-GOS) (n=6) • 12. CAIA+prednisolone 0.2 mg/kg (n=6) • 13. CAIA+prednisolone 0.2 mg/kg (n=6)+MD (50 mg AG+70 mg PP+50 mg alpha-GOS) (n=6) • 14. […]

[4] = group A (dosed day 0 to day 14), subgroup 10A: prednisolone 0.05 mg/kg
[5] = group A (dosed day 0 to day 14), subgroup 12A: prednisolone 0.2 mg/kg
[6] = group A (dosed day 0 to day 14), subgroup 14A: prednisolone 1 mg/kg
[7] = group B (dosed day 4 to day 14), subgroup 10B: prednisolone 0.05 mg/kg
[8] = group B (dosed day 4 to day 14), subgroup 12B: prednisolone 0.2 mg/kg
[9] = group B (dosed day 4 to day 14), subgroup 14B: prednisolone 1 mg/kg

**Q.** Which “Radiological score, MEAN” value [1, 4] does the source give for `C[C@]12C=CC(=O)C=C1CC[C@@H]1[C@@H]2[C@@H](O)C[C@@]2(C)[C@H]1CC[C@]2(O)C(=O)CO` [prednisolone] here?
**A.** 2.3

**Q.** And the “Radiological score, MEAN” value [1, 5]?
**A.** 1.8

**Q.** And the “Radiological score, MEAN” value [1, 6]?
**A.** 1.7

**Q.** And the “Radiological score, MEAN” value [1, 7]?
**A.** 2.6

**Q.** And the “Radiological score, MEAN” value [1, 8]?
**A.** 1.9

**Q.** What about the “Radiological score, MEAN” value [1, 9] of the same compound?
**A.** 1.8

**Q.** What about the “Histological score, MEAN” value [2, 4] of the same compound?
**A.** 1.8

**Q.** What about the “Histological score, MEAN” value [2, 5] of the same compound?
**A.** 1.3

**Q.** And the “Histological score, MEAN” value [2, 6]?
**A.** 1.1

**Q.** And the “Histological score, MEAN” value [2, 7]?
**A.** 2.4

**Q.** And the “Histological score, MEAN” value [2, 8]?
**A.** 1.8

**Q.** And the “Histological score, MEAN” value [2, 9]?
**A.** 1.9

**Q.** And the “cytokine levels (IL-17, IL-6, IL-23, TNF-α and IL-1β) in arthritic hind paws” value [3]?
**A.** significantly reduced the expressions of the aforementioned cytokines
